# According to patent US5276034A, “Substituted imidazolyl-alkyl-piperazine and -diazepine derivatives” (Syntex Pharmaceutical Ltd., priority 1991, dated 1994):
# Legend:
# [1] = system: abnormal neurones in brain areas after four vessel occlusion; assay: Ten minute model of four vessel occlusion with 72 hour survival; assay type: in vivo; conditions: 100 mg/kg i.a. 5 min plus 500 mg/kg i.p. 15 min post-ischaemia
# Experimental: B. Ten minute Model of four vessel occlusion with 72 hour survival.
# The procedure used was that of Alps, et al., Neurology, 37, 809 (1987). The object of this assay was to count abnormally appearing cells in 7 different areas and exymers as a percentage of the total area counted. The number of counts per structure depended upon size, e.g., cortical areas had double the number of other areas. Mean whole brain scores were also determined for percent abnormalities. Normal brains were also used to account for incidence of artifact changes attributed to the fixation process.
# . In this case 6 animals were used with the results shown in the below table.
# 2) Untreated (saline) ischemic controls--The animals were subjected to 10 minutes of bilateral common cartoid artery occlusion (with previously surgically sealed vertebral arteries) with 72 hours survival. The microscopic sections were prepared as in 1) above. In this case 11 animals were used with the results shown in the below table.
# Parenteral, post-ischaemia treated--The animals were given 100 mg/kg i.a. of 1-diphenyl-methyl-4-[(2-(4-methylphenyl)-5-methylimidazol-4-yl)-methyl]piperazine trihydrochloride 5 minutes post-ischaemia plus 500 mg/kg i.p. of 1-diphenyl-methyl-4-[(2-(4-methylphenyl)-5-methylimidazol-4-yl)-methyl]piperazine trihydrochloride 15 minutes post-ischaemia. The microscopic sections were prepared according to 1) above. In this case 5 animals were used with the results shown in the below table.
# [2] = system: pentylenetetrazole-induced seizures and mortality; assay: Effect on pentylenetetrazole-induced seizures and mortality in the mouse; assay type: in vivo, mouse (male CDI); conditions: 500 mg/kg i.p., pentylenetetrazole 100 mg/kg s.c.
# Experimental: C. The effect of 1-diphenyl-methyl-4-[(2-(4-methylphenyl)-5-methylimidazol-4-yl)-methyl]piperazine trihydrochloride on pentylenetetrazole-induced seizures and mortality in the mouse.
# The procedure used was that described in Allely, and Alps, Br. J. Phramacol. Proc. Suppl., 92, 605P (1987). Groups of 20 or more (see n in table) male CDI mice were predosed with 500 mg/kg i.p. of 1-diphenyl-methyl-4-[(2-(4-methylphenyl)-5-methylimidazol-4-yl)methyl]piperazine trihydrochloride at one of three dosing schedules--A (15minutes), B (60 minutes), or C (3 days b.i.d. plus 15 minutes on 4th day)--before challenging with 100 mg/kg of pentylenetetrazole s.c. The animals were then observed for a 30 minute period and the occurrence of clonic or tonic seizures or death noted. Statistical analysis was by a Chi squared test of association. Results compared against saline treated animals are shown in the below table.
# [3] = system: male normotensive rats (urine volume, sodium and potassium excretion); assay: Diuresis in male normotensive rats; assay type: in vivo, rat
# Experimental: Male normotensive rats weighing 290-380 g were divided into four groups of seven animals. All animals were fasted and deprived of water overnight. The following morning, each group of rats was hydrated with deionized water ([…]. p.o.) 45 minutes prior to the administration of vehicle (1% polysorbate 80 in deionized water) or 1-diphenyl-methyl-4-[(2-(4-methylphenyl)-5-methylimidazol-4-yl)methyl]-piperazine trihydrochloride at doses of 5, 15, or 30 mg/kg p.o. Fifteen minutes post-drug, the animals were saline loaded (30 ml/kg, p.o. 0.9% sodium chloride) and placed individually in metabolism cages. Urine was collected at 1, 3, and 6 hour intervals post-dose. Urine volumes were measured and sodium and potassium levels were determined by flame photometry. Differences between control and treated values were evaluated by one way analysis of variance.
# [4] = system: barium-stimulated intestinal transit of the charcoal meal; assay: Irritable bowel syndrome: intestinal transit of a charcoal meal in conscious mice, barium chloride stimulated; assay type: in vivo, mouse; conditions: Mus musculus, po, 15 min pre-treatment, % of total transit induced by Ba^+2, read-out: % Inhibition of Ba^+2 effect
# Experimental: The test used is a modification of the method of Macht and Barba-Gose, J. Amer. Pharm. […] In the present model, intestinal transit in conscious mice (15-20 g) was accelerated with an oral dose of barium chloride (300 mg/kg) administered at the same time as the charcoal meal. The animals were sacrificed 10 minutes later and the distance travelled by the charcoal measured. 1-diphenyl-methyl-4-[(2-(4-methylphenyl)-5-methylimidazol-4-yl)methyl]-piperazine trihydrochloride was given as a 15 minute oral pre-treatment and its effect on non-stimulated or barium-stimulated intestinal transit of the charcoal meal was calculated.
# [5] = schedule C (3 days b.i.d. plus 15 minutes on 4th day), n=24
structure (smiles),measurement,setting,value
Cc1ccc(-c2nc(CN3CCN(C(c4ccccc4)c4ccccc4)CC3)c(C)[nH]2)cc1.Cl.Cl.Cl [1-diphenylmethyl-4-[(2-(4-methylphenyl)-5-methylimidazol-4-yl)methyl]piperazine trihydrochloride],"Mean % Abnormal Neurones, Hip C2-5",[1]; Hip C2-5,1.78 ± 0.99%
same,"Mean % Abnormal Neurones, Hip CA",[1]; Hip CA,16.76 ± 4.00%
same,"Mean % Abnormal Neurones, Hip. Cortex",[1]; Hip. Cortex,2.41 ± 0.30%
same,"Mean % Abnormal Neurones, Purk. cells",[1]; Purk. cells,2.22 ± 0.79%
same,"Mean % Abnormal Neurones, Str. Cortex",[1]; Str. Cortex,2.01 ± 0.29%
same,"Mean % Abnormal Neurones, Striatum",[1]; Striatum,1.54 ± 0.33%
same,"Mean % Abnormal Neurones, Thalamus",[1]; Thalamus,0.64 ± 0.25%
same,% clonic seizures,"[2]; schedule A (15 minutes), n=20",85.0%
same,% death,"[2]; schedule A (15 minutes), n=20",50.0%
same,% tonic seizures,"[2]; schedule A (15 minutes), n=20",85.0%
same,% clonic seizures,"[2]; schedule B (60 minutes), n=25",88.0%
same,% death,"[2]; schedule B (60 minutes), n=25",36.0%
same,% tonic seizures,"[2]; schedule B (60 minutes), n=25",64.0%
same,% clonic seizures,[2]; [5],66.7%
same,% death,[2]; [5],45.0%
same,% tonic seizures,[2]; [5],41.7%
same,"Potassium ion, Cumulative","[3]; 5 mg/kg p.o., 1 hour",.04 ± .03 mEq
same,"Sodium ion, Cumulative","[3]; 5 mg/kg p.o., 1 hour",.07 ± .06 mEq
same,"Urine Volume, Cumulative","[3]; 5 mg/kg p.o., 1 hour",5.7 ± 2.5 mL
same,"Potassium ion, Cumulative","[3]; 5 mg/kg p.o., 3 hours",.16 ± .09 mEq
same,"Sodium ion, Cumulative","[3]; 5 mg/kg p.o., 3 hours",.39 ± .25 mEq
same,"Urine Volume, Cumulative","[3]; 5 mg/kg p.o., 3 hours",9.5 ± 3.6 mL
same,"Potassium ion, Cumulative","[3]; 5 mg/kg p.o., 6 hours",.26 ± .12 mEq
same,"Sodium ion, Cumulative","[3]; 5 mg/kg p.o., 6 hours",.73 ± .32 mEq
same,"Urine Volume, Cumulative","[3]; 5 mg/kg p.o., 6 hours",11.8 ± 3.9 mL
same,"Potassium ion, Cumulative","[3]; 15 mg/kg p.o., 1 hour",.04 ± .05 mEq
same,"Sodium ion, Cumulative","[3]; 15 mg/kg p.o., 1 hour",.12 ± .16 mEq
same,"Urine Volume, Cumulative","[3]; 15 mg/kg p.o., 1 hour",5.7 ± 4.4 mL
same,"Potassium ion, Cumulative","[3]; 15 mg/kg p.o., 3 hours",.12 ± .06 mEq
same,"Sodium ion, Cumulative","[3]; 15 mg/kg p.o., 3 hours",.44 ± .20 mEq
same,"Urine Volume, Cumulative","[3]; 15 mg/kg p.o., 3 hours",9.8 ± 3.2 mL
same,"Potassium ion, Cumulative","[3]; 15 mg/kg p.o., 6 hours",.20 ± .08 mEq
same,"Sodium ion, Cumulative","[3]; 15 mg/kg p.o., 6 hours",.68 ± .28 mEq
same,"Urine Volume, Cumulative","[3]; 15 mg/kg p.o., 6 hours",11.7 ± 3.3 mL
same,"Potassium ion, Cumulative","[3]; 30 mg/kg p.o., 1 hour",.04 ± .03 mEq
same,"Sodium ion, Cumulative","[3]; 30 mg/kg p.o., 1 hour",.15 ± .12 mEq
same,"Urine Volume, Cumulative","[3]; 30 mg/kg p.o., 1 hour",6.5 ± 2.3 mL
same,"Potassium ion, Cumulative","[3]; 30 mg/kg p.o., 3 hours",.15 ± .08 mEq
same,"Sodium ion, Cumulative","[3]; 30 mg/kg p.o., 3 hours",.79 ± .38 mEq
same,"Urine Volume, Cumulative","[3]; 30 mg/kg p.o., 3 hours",10.5 ± 2.5 mL
same,"Potassium ion, Cumulative","[3]; 30 mg/kg p.o., 6 hours",.27 ± .06 mEq
same,"Sodium ion, Cumulative","[3]; 30 mg/kg p.o., 6 hours",1.48 ± .24 mEq
same,"Urine Volume, Cumulative","[3]; 30 mg/kg p.o., 6 hours",14.6 ± 1.4 mL
same,diuresis,"[3]; 30 mg/kg p.o., at 1 hour and 6 hours post-drug",significant (p<0.05) diuresis
same,natriuretic effect,"[3]; 30 mg/kg p.o., at the 3 and 6 hour time periods",significant natriuretic effect
same,kaliuretic effects,"[3]; following compound administration, p.o.",No significant kaliuretic effects were observed
same,inhibition at 5 mg/kg,[4]; 5 mg/kg p.o.,14%
same,inhibition at 25 mg/kg,[4]; 25 mg/kg p.o.,-30.4%
same,inhibition at 60 mg/kg,[4]; 60 mg/kg p.o.,-31.7%
